1 compound from US20250134889A1, “TARGETING IRE1 KINASE AND FMRP FOR PROPHYLAXIS, MANAGEMENT AND TREATMENT OF ATHEROSCLEROSIS” (CEDARS-SINAI MEDICAL CENTER, priority 2022, published 2025) can be followed below.

This data set relates to atherosclerosis in Apoe-/- mice. Description: Atherosclerosis in Apoe-/- mice fed WD. The data set is classed as in vivo, mouse. The procedure:
FIGS. 6A-6J depict that IRE1 kinase inhibition alleviates atherosclerosis. (Data are mean±SEM; Mann Whitney U test. * P≤0.05, ** P≤0.01, *** P≤0.001.) • 6A. Atherosclerosis experiment design in Apoe^−/− mice were fed with WD (12 weeks) and injected with vehicle (DMSO) or AMG-18 (30 mg/kg) once a day in the last 4 weeks of WD. • 6B. Lesion area calculated from en face aorta, stained with ORO (n=5; Scale bar=5 mm). • 6C. Total plaque area was calculated from H&E-stained aortic root sections (n=5; Scale bar=300 μm). • 6D. Foam cell area was calculated from ORO-stained aortic root sections (n=5; Scale bar=300 μm). • 6E. Necrotic area was calculated from H&E-stained aortic root sections (n=5; Scale bar=100 μm). • 6F. Atherosclerosis experiment design in Apoe^−/− mice were fed with WD (12 weeks) and injected with vehicle (DMSO) or AMG-18 (30 mg/kg) twice a day in the last 4 weeks of WD. • 6G. Lesion area calculated from en face aorta, stained with ORO (n=6; Scale bar=5 mm). • 6H. Total plaque area was calculated from H&E-stained aortic root sections (n=5; Scale bar=300 μm). • 6I. Foam cell area was calculated from ORO-stained aortic root sections (n=5; Scale bar=300 μm). • 6J. Necrotic area was calculated from H&E-stained aortic root sections (n=5; Scale bar=100 μm).
FIGS. 6K-6T depict: (Data are mean±SEM; Mann Whitney U test. * P≤0.05, ** P≤0.01, *** P≤0.001.) • 6K. The ratio of mouse weight at the beginning of the experiment over the weight at the end of the experiment in FIG. 6A (n=5). • 6L-6N. Plasma measurements for (6L) glucose (n=5) and (6M) cholesterol (n=5) from mice in FIG. 6A. (6N) Abundance of B cells, T cells and monocytes in the peripheral blood as % of total CD45+ cells from the vehicle (DMSO) or AMG-18 (30 mg/kg) once a day injected mice in FIG. 6A (n=5). • 6O. Protein lysates of liver from mice in FIG. 6A. Proteins were analyzed by western blotting using specific antibodies for pIRE1 and β-Actin (n=5). • 6P. The ratio of mouse weight at the beginning of the experiment over the weight at the end of the experiment in FIG. 6F (n=6). • 6Q-6R. Plasma measurements for (6Q) glucose (n=6) and (6R) cholesterol (n=6) from FIG. 6F. • 6S-6T. Protein lysates of (6S) thioglycolate-elicited PM and (6T) liver from mice in FIG. 6F. Proteins were analyzed by western blotting using specific antibodies for pIRE1 and β-Actin (n=6).
Mice studies and treatments: C57BL/6 (WT, Fmr1^+/+), Fmr1^−/− and Apolipoprotein E-deficient (Apoe^−/−) mice were purchased from Jackson Laboratory. IRE1 conditional knock out (Ire1α^flox/flox) mice were a kind gift from Dr. Takao Iwawaki (Kanazawa Medical University, Japan) and characterized before (Iwawaki et al, 2009). […] Fmr1 conditional knock out (Fmr1^flox/flox) mice were a kind gift from dr. David Nelson. Fmr1^flox/flox mice were inter-crossed with LysM^cre mice purchased from Jackson Lab (004781) to obtain myeloid Fmr1-deficient (myFmr1^−/−) mice. Starting at 8 weeks of age, Fmr1^−/−, Fmr1^−/−, myFmr1/or myFmr1^−/− mice were injected with 1×10^10 AAV_PCSK9 (AAV8-D377Y-mPCSK9, Vector BiolabsAAV-268246) via tail vein, then fed with normal chow or high cholesterol/high fat atherosclerotic mouse diet from Envigo (TD.88137) for 6 to 16 weeks. Apoe^−/− mice were fed with WD (12 weeks) and intraperitoneally injected with vehicle (DMSO) or AMG-18 (30 mg/kg) once or twice a day in the last 4 weeks of WD. C57BL/6 were injected with Tunicamycin (TM, 1 mg/kg) and with AMG-18 (30 mg/kg) or vehicle (DMSO) in 20% vol/vol Cremophor EL saline solution. 8 hours later peritoneal macrophages were isolated by thioglycolate elicitation for further analysis. Mice were kept under specific pathogen-free conditions with food and water ad libititum. Both female and male mice were used for experiments. […]

[1] abbreviates: 30 mg/kg once daily, last 4 weeks of 12 weeks WD.
Where [2] appears, read: 30 mg/kg twice daily, last 4 weeks of 12 weeks WD.

On to `Cc1ccc2c(NS(=O)(=O)c3ccccc3Cl)cccc2c1Oc1ncccc1-c1ccnc(N[C@H]2CCCNC2)n1` [AMG-18], for which, under setting [1], the “aortic root lesion area” value is listed as “not different”, the “atherosclerotic lesions in en face aorta preparations” value is recorded as “decrease”, the body weight result is on record as “no significant differences” and the foam cell area entry is on record as “significantly decreased”. Further, under setting [1], the necrotic core area entry is “significantly decreased” and the “number of circulating immune cells” value is recorded as “no significant differences”. The “IRE1 autophosphorylation (target engagement)” value (30 mg/kg once daily, liver lysates) is “reduced”. Besides, under setting [2], the “aortic root lesion area” value is reported as “did not alter”, the “atherosclerotic lesions in en face aorta preparations” value is listed as “significant decrease”, the body weight ratio result is “decrease” and the foam cell area result was “significantly decreased”. Moreover, under setting [2], the necrotic core area entry is “significantly decreased”. For the same compound, where the note is “30 mg/kg twice daily, PM and liver lysates”, the “IRE1 autophosphorylation (target engagement)” value is recorded as “reduced”.
